Measurements: US7985766B2, “Combination of anticholineric and β mimetics for the treatment of respiratory diseases” (MEDA Pharma GmbH & Co. KG, priority 2004, dated 2011)
Like-named read-outs stand apart in the source and are kept apart here.

Test system: guinea pigs
Conditions: for inhibition of acetylcholine-induced bronchoconstriction (bronchodilatory effect): 1 μg/kg, single drug; for inhibition of acetylcholine-induced bronchoconstriction (bronchodilatory effect) / inhibition of the bronchospasm: i.th.; for inhibition of acetylcholine-induced bronchoconstriction, dose dependence: i.th. 1-10 μg/kg, acetylcholine 10 μg/kg i.v., anesthetized male guinea pigs
Description: After cannulating the trachea, animals were respired using a small animal respiratory pump with a constant tidal volume and a rate of 60 breaths/min. The lung resistance was measured by using a rodent lung function recording system (MUMED, London, UK). Compounds were given intravenously (i.v.) via a catheter placed in the right jugular vein. After surgery, the animals were allowed to stabilize. 10 min before acetylcholine (10 μg/kg, i.v.) administration, the guinea pigs were disconnected from the respirator and either vehicle (10 mg/lactose) or different amounts of drugs (blended with lactose) were administered intratracheally (i.th.) using a syringe. The trachea was then reconnected to the respirator and changes in pulmonary mechanics were recorded. Acetylcholine (10 μg/kg) was injected intravenously in every 10 minutes for 60 min.

Row | SMILES | inhibition of acetylcholine-induced bronchoconstriction (bronchodilatory effect) | inhibition of the bronchospasm (3 μg/kg) | inhibition of the bronchospasm (10 μg/kg) | inhibition of acetylcholine-induced bronchoconstriction, dose dependence
1 | C[N+]1(C)CC[C@@H](OC(=O)[C@](O)(c2ccccc2)C2CCCC2)C1.[Br-] [R,R-glycopyrrolate] | not effective | ca. 40% | about 80% | dose-dependently inhibited
2 | COc1ccc(CC(C)NCC(O)c2ccc(O)c(NC=O)c2)cc1 (stereo not drawn) [formoterol] | did not show any bronchodilatory effects | – | – | dose-dependently inhibited
